Results published in paper PMC3770139 (Molecular cell, 2013).

Target: T1, Gpa1 (yeast Gα) (Saccharomyces cerevisiae, UniProt P08539)
T1 sequence (P08539 2-472): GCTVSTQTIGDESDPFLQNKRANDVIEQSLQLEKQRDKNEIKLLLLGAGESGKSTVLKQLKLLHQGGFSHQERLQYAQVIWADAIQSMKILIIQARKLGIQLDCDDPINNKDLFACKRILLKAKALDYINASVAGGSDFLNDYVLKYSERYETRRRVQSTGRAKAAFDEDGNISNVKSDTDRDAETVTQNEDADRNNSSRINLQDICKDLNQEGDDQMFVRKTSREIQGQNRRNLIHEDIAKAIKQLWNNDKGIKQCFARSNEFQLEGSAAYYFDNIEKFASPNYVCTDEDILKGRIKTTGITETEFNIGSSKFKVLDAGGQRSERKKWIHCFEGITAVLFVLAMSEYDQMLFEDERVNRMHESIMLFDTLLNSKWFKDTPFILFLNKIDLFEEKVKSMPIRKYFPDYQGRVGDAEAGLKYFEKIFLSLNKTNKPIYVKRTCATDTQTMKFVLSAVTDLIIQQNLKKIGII
Experiment: steady-state hydrolysis of gamma-32P GTP, charcoal assay
Format: biochemical
Conditions: turnover only; 5 µM GTP, 1 mM MgCl2, 37 °C, pH 6.0, 7.0, 8.0

SMILES: Nc1nc2c(ncn2[C@@H]2O[C@H](COP(=O)(O)OP(=O)(O)OP(=O)(O)O)[C@@H](O)[C@H]2O)c(=O)[nH]1 [GTP]
- steady-state hydrolysis of gamma-32P GTP, charcoal assay: Steady-state GTP hydrolysis by yeast Gpa1 and mammalian Gαi
